# Assay results as given in US20250161338A1, “Compounds for Anti-aging Intervention” (AGENCY FOR SCIENCE, TECHNOLOGY AND RESEARCH, priority 2022, published 2025).
# Structures can show the parent of a compound that is named as a salt.
# Columns and labels:
# [1] = tested on: prototrophic yeast strain (CEN.PK113-7D); assay: Propidium iodide fluorescence-based CLS method in yeast (incl. high-throughput screening); type: cell-based, Saccharomyces cerevisiae; details: concentration tested 100 μM; for Yeast CLS increase: Yes/No call of the screen; for PI intensity: solvent DMSO or water, chronological age point Day 7 (72 h growth = Day 1), lower = more survival;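 as to PI intensity: untreated reference is eight DMSO and water control wells per plate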
# Method: Yeast strain was recovered from frozen glycerol stock at 30° C. on YPD agar medium. Yeast was left to propagate in SD medium overnight at 30° C. with shaking at 220 revolutions per minute (rpm). Cells propagated overnight were diluted to a starting optical density at 600 nm (OD600) of approximately 0.2 in fresh SD medium to begin the chronological lifespan (CLS) experiments.
# (§1) CLS experiments were performed in 96-well plates with 200 μL yeast culture. Cellular inoculums were transferred into 96-well plates containing serially double-diluted concentrations (0 to 10 nM) of rapamycin. Cellular inoculum was transferred into 96-well plates containing serially double-diluted concentrations (0 to 8 mM) of 2,5-anhydro-D-mannitol, D-fructose, D-mannitol, D-maltose, and D-sorbitol in SD medium. Cells were incubated at 30° C., and the growth was measured at different time points. […] Cell survival was quantified at various age time points by three different approaches: (i) PI fluorescence-based method, (ii) outgrowth in YPD liquid medium, and (iii) spotting assay (FIG. 1).
# Yeast cells (40 μL) from different age time points were transferred into a second 96-well plate (different to the 96-well plate in which the CLS analysis as outlined above was performed). Cells were washed and incubated in 100 μL 1×phosphate buffered saline (PBS) with propidium iodide (PI) (5 μg/mL) for 15 minutes in the dark. Positive and negative control samples were included for quantitative analysis. Positive control (cells boiled at 100° C. for 15 minutes) was PI-stained and processed in the same 96-well plate. Samples without PI-stained cells served as the negative control. After incubation, cells were washed and resuspended in 100 μL PBS. The fluorescence reading of the samples (excitation and emission wavelengths at 535 nm and 617 nm, respectively) and OD600 were measured with a microplate reader (BioTek, Winooski, Vermont, United States). The fluorescence intensity of each sample was normalized with OD600. The background fluorescence signal of the unstained negative sample was subtracted from the normalized fluorescence intensity of each sample. The obtained fluorescence intensity of the positive control (boiled dead cells) was considered 0% cell survival. Cell death was validated by allowing the boiled dead cells to grow in medium. Cell survival at different age time points of samples were calculated by normalizing the fluorescence intensity with positive control sample (boiled cells).
# High-throughput screening of various chemicals was tested using the same protocol for the propidium iodide fluorescence-based method as described above. The prototrophic yeast strain (CEN.PK113-7D) was grown in the synthetic defined medium with different chemical reagents at their respective single testing concentration (Table 1) in addition to eight replicates of DMSO and water controls in 96-well plates at 30° C.
# [2] = tested on: prototrophic yeast strain (CEN.PK113-7D); assay: Yeast outgrowth in YPD liquid medium (CLS of aged cells); type: cell-based, Saccharomyces cerevisiae; details: concentration tested 100 μM; OD600 nm after 24 h in YPD at 30° C.; age point day 14
# Method: as §1
# Outgrowth (OD600) of aged cells was measured by the microplate reader. Quantification of cell survival for each age point was determined as relative to Day 1 (considered 100% cell survival). This quantification was performed by using the formula,
# [formula] • where OutgrowthDay n refers to the OD600 nm absorbance reading recorded on a specific day, OutgrowthDay 1 refers to the OD600 nm absorbance reading recorded on the first day where 100% cell survival is assumed.
# The CLS of the aged cells was further determined by the yeast outgrowth in YPD liquid medium method as described above. […] At chronological age point day 14, 3-μL of culture were transferred to a second 96-well plate containing 200 μL YPD medium.
Structure (SMILES),Yeast CLS increase [1],PI intensity [1],Outgrowth [2],PI intensity ([1]; (monohydrate))
CC1OC(OC2C(=O)c3c(O)cc(O)cc3OC2c2ccc(O)cc2)C(O)C(O)C1O (centres unmarked) [Engeletin],Yes,"37,144.4",0.9,–
COc1cc2c(cc1OC)-c1cc3ccc4c(c3c[n+]1CC2)OCO4.[Cl-] [Epiberberine (chloride)],Yes,"38,027.2",1.3,–
O=c1ccc2cc(O[C@@H]3O[C@H](CO)[C@@H](O)[C@H](O)[C@H]3O)c(O)cc2o1 [Esculin],No,"72,890.7",0.1,–
CCOC(=O)c1ccc(O)cc1 [Ethylparaben],No,"52,097.7",0.1,–
C=C1[C@H](OC(=O)c2ccccc2)C[C@H]2[C@@H](/C=C(\C)C(=O)[C@@]3(OC(C)=O)C[C@H](C)[C@H](OC(=O)c4ccccc4)[C@@H]3[C@H]1OC(C)=O)C2(C)C [Euphorbia Factor L2],No,"68,871.8",0.1,–
Cc1cc2nc3c(=O)[nH]c(=O)nc-3n(C[C@H](O)[C@H](O)[C@H](O)COP(=O)(O)OP(=O)(O)OC[C@H]3O[C@@H](n4cnc5c(N)ncnc54)[C@H](O)[C@@H]3O)c2cc1C [Flavin adenine dinucleotide (disodium salt)],No,"59,508.7",0.2,–
NC=O [Formamide],No,"64,135.2",0.1,–
"O=C1NC(c2ccccc2)(c2ccccc2)C(=O)N1COP(=O)(O)O [Fosphenytoin (disodium), reference compound]",No,"61,860.0",0.1,–
COC(=O)C1=CO[C@@H](O[C@@H]2O[C@H](CO)[C@@H](O)[C@H](O)[C@H]2O)[C@H]2[C@@H]1C=C[C@@]2(O)CO [Gardenoside],No,"65,525.5",0.1,–
C=C[C@@H]1C2=CCOC(=O)C2=CO[C@H]1O[C@@H]1O[C@H](CO)[C@@H](O)[C@H](O)[C@H]1O [Gentiopicroside],No,"59,804.7",0.1,–
CC(C)=CCC/C(C)=C/CO [Geraniol],No,"76,340.1",0.1,–
Cl.N[C@H]1C(O)O[C@H](CO)[C@@H](O)[C@@H]1O (some centres unmarked) [Glucosamine (hydrochloride)],No,"65,905.5",0.1,–
CC(CCC(=O)NCC(=O)O)C1CCC2C3CCC4CC(O)CCC4(C)C3CC(O)C12C (centres unmarked) [Glycodeoxycholic acid (monohydrate)],No,–,0.1,"73,459.3"
C[C@H](CCC(=O)NCC(=O)O)[C@H]1CC[C@H]2[C@@H]3[C@@H](O)C[C@@H]4C[C@H](O)CC[C@]4(C)[C@H]3CC[C@]12C [Glycoursodeoxycholic acid],No,"64,205.2",0.1,–
Cc1cc2c(C(C)C)c(O)c(O)c(C=O)c2c(O)c1-c1c(C)cc2c(C(C)C)c(O)c(O)c(C=O)c2c1O [Gossypol],–,"65,220.1",0.1,–
Cc1ccc(C(C)C)cc2c(C)ccc1-2 [Guaiazulene],No,"58,776.1",0.1,–
C/C=C1\C(=O)C[C@H]2[C@@H]3CCC4=CC(=O)CC[C@]4(C)[C@H]3CC[C@]12C [Guggulsterone],No,"63,881.9",0.1,–
